Consider seven molecules from PubChem BioAssay (NCI).

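Five concentrations, 48 hours, 96-well plates. At the GI50, growth is halved. TGI is the concentration that stops growth completely.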

Among the test systems are NCI-H226 lung; SK-MEL-5 melanoma; OVCAR-5 ovarian; COLO 205 colon; OVCAR-8 ovarian; HT29 colon; MOLT-4 leukemia; SNB-75 CNS; SK-MEL-28 melanoma; DU-145 prostate.
Common to all, as to test: DTP human tumour cell line panel, 48 h

In the case of `CCC(=C(c1ccc(OCCN(CC)CC)cc1)c1ccc(OCCN(CC)CC)cc1)c1ccc(Cl)cc1`, the GI50 in the experiment on NCI-H226 lung was 0.679 µM; with SK-MEL-5 melanoma, 0.593 µM; with OVCAR-5 ovarian, 0.559 µM; in the experiment with COLO 205 colon it was 0.631 µM; in the experiment on OVCAR-8 ovarian it was 0.685 µM; with HT29 colon it was 0.51 µM. For the same molecule, the GI50 in the experiment on MOLT-4 leukemia was 0.583 µM; in the experiment on SNB-75 CNS, 0.668 µM; in the experiment on SK-MEL-28 melanoma, 0.592 µM; in the experiment on DU-145 prostate, 0.619 µM. Moreover, the TGI in the experiment on NCI-H226 lung is 1.48 µM; with SK-MEL-5 melanoma, 1.06 µM; with OVCAR-5 ovarian it was 1.06 µM; in the experiment with COLO 205 colon, 1.32 µM; in the experiment on OVCAR-8 ovarian, 1.51 µM; in the experiment on HT29 colon it was 1.15 µM. Also, the TGI with MOLT-4 leukemia is 1.3 µM; with SNB-75 CNS, 2.32 µM; in the experiment with SK-MEL-28 melanoma it was 1.09 µM; with DU-145 prostate, 1.19 µM.

With `O=NNc1nc(-c2ccccn2)nc2ccccc12`, the TGI with NCI-H226 lung is 62.5 µM; in the experiment on SK-MEL-5 melanoma, > 100 µM; in the experiment on OVCAR-5 ovarian it was > 100 µM; in the experiment on COLO 205 colon, > 100 µM; in the experiment with OVCAR-8 ovarian, > 100 µM; in the experiment with HT29 colon, 18.7 µM. Also, the TGI in the experiment with MOLT-4 leukemia, in the experiment with SNB-75 CNS, in the experiment on SK-MEL-28 melanoma and in the experiment on DU-145 prostate was > 100 µM throughout.

In the case of `CC(C)(CCc1nc2ccccc2[nH]1)C(=O)O`, the TGI in the experiment with NCI-H226 lung, with SK-MEL-5 melanoma, in the experiment on OVCAR-5 ovarian, with COLO 205 colon, with OVCAR-8 ovarian and with HT29 colon was > 100 µM in each case. Moreover, the concentration for total growth inhibition (TGI) in the experiment on MOLT-4 leukemia, in the experiment on SNB-75 CNS, in the experiment with SK-MEL-28 melanoma and in the experiment on DU-145 prostate was > 100 µM in each case.

Turning to `CS(=O)(=O)Nc1ccc(Nc2c3ccccc3nc3cc(Cl)ccc23)cc1`, the GI50 was 0.672 µM in the experiment on NCI-H226 lung; 1.13 µM with SK-MEL-5 melanoma; 4.99 µM with OVCAR-5 ovarian; 1.51 µM with COLO 205 colon; 1.76 µM in the experiment with OVCAR-8 ovarian; 2.57 µM with HT29 colon. For the same molecule, the GI50 in the experiment on MOLT-4 leukemia was 0.214 µM; in the experiment with SNB-75 CNS, 1.29 µM; in the experiment with SK-MEL-28 melanoma it was 3.62 µM; in the experiment on DU-145 prostate, 0.646 µM. In addition, the TGI with NCI-H226 lung is 6.17 µM; in the experiment on SK-MEL-5 melanoma, 2.62 µM; in the experiment with OVCAR-5 ovarian, 22.3 µM; in the experiment with COLO 205 colon, 15.6 µM; with OVCAR-8 ovarian it was 15.6 µM; in the experiment with HT29 colon it was 14.1 µM. In addition, the TGI with MOLT-4 leukemia came to 16.2 µM; in the experiment on SNB-75 CNS, 15.9 µM; in the experiment on SK-MEL-28 melanoma, 19.2 µM; with DU-145 prostate, 14 µM.

Turning to `COc1cc(/C=C/C(=O)c2c(-c3ccc(Cl)cc3)nc3sc(C)nn23)cc(OC)c1OC`, the GI50 with NCI-H226 lung is 23.7 µM; in the experiment with SK-MEL-5 melanoma, 3.1 µM; with OVCAR-5 ovarian, > 100 µM; with COLO 205 colon, 60.8 µM; in the experiment on OVCAR-8 ovarian, 5.62 µM; in the experiment with HT29 colon, 77.7 µM. Moreover, the GI50 is 7.59 µM in the experiment on MOLT-4 leukemia, 12.8 µM in the experiment with SNB-75 CNS, > 100 µM in the experiment on SK-MEL-28 melanoma and > 100 µM in the experiment on DU-145 prostate. Moreover, the TGI in the experiment with NCI-H226 lung is > 100 µM; with SK-MEL-5 melanoma it was 15.6 µM; in the experiment on OVCAR-5 ovarian, > 100 µM; in the experiment with COLO 205 colon, > 100 µM; in the experiment on OVCAR-8 ovarian, > 100 µM; with HT29 colon it was > 100 µM. Besides, the TGI with MOLT-4 leukemia was > 100 µM; in the experiment on SNB-75 CNS it was 33.7 µM; in the experiment with SK-MEL-28 melanoma, > 100 µM; in the experiment on DU-145 prostate, > 100 µM.

Regarding `CCn1c(SC)nnc1-c1cc2c([nH]c3ccccc32)c(-c2cccc(O)c2)n1`, the GI50 with NCI-H226 lung was 1.91 µM; with SK-MEL-5 melanoma it was 1.03 µM; in the experiment on OVCAR-5 ovarian, 10 µM; in the experiment with COLO 205 colon, 9.49 µM; in the experiment with OVCAR-8 ovarian, 3.62 µM; in the experiment with HT29 colon, 3.41 µM. Moreover, the GI50 in the experiment with MOLT-4 leukemia was 2.05 µM; in the experiment on SNB-75 CNS it was 1.3 µM; with SK-MEL-28 melanoma, 2.69 µM; in the experiment on DU-145 prostate it was 4.46 µM. For the same molecule, the TGI with NCI-H226 lung was 4.9 µM; in the experiment on SK-MEL-5 melanoma it was 5.97 µM; in the experiment on OVCAR-5 ovarian it was 43.1 µM; in the experiment with COLO 205 colon it was 27.5 µM; in the experiment on OVCAR-8 ovarian it was 24.5 µM; in the experiment with HT29 colon it was 12.5 µM. The TGI with MOLT-4 leukemia was > 100 µM; in the experiment with SNB-75 CNS, 3.94 µM; in the experiment on SK-MEL-28 melanoma, 21 µM; in the experiment on DU-145 prostate, 24.9 µM.

With `O=C(COC(=O)[C@H](C[Se][Se]C[C@H](NC(=O)c1ccc(Br)cc1F)C(=O)OCC(=O)c1ccc(F)cc1)NC(=O)c1ccc(Br)cc1F)c1ccc(F)cc1`, the GI50 was 1.02 µM with NCI-H226 lung; 1.23 µM with SK-MEL-5 melanoma; 0.951 µM with OVCAR-5 ovarian; 1.67 µM with COLO 205 colon; 0.408 µM in the experiment on OVCAR-8 ovarian; 0.916 µM in the experiment on HT29 colon. Further, the GI50 in the experiment on MOLT-4 leukemia was 3.54 µM; in the experiment on SNB-75 CNS it was 0.354 µM; in the experiment on SK-MEL-28 melanoma, 0.631 µM; in the experiment on DU-145 prostate, 0.385 µM. The TGI in the experiment on NCI-H226 lung was 3.63 µM; with SK-MEL-5 melanoma, 4.27 µM; in the experiment on OVCAR-5 ovarian, 2.72 µM; with COLO 205 colon, 3.95 µM; in the experiment on OVCAR-8 ovarian it was 1.61 µM; with HT29 colon, > 58.7 µM. In addition, the TGI was found to be 71.3 µM in the experiment on MOLT-4 leukemia, 0.964 µM in the experiment with SNB-75 CNS, 1.63 µM in the experiment on SK-MEL-28 melanoma and 1.08 µM with DU-145 prostate.

Broadly, the GI50 is the concentration giving 50% growth inhibition. As usually defined, the TGI is the concentration giving total growth inhibition.
